#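 Compound exposure: 48 hours, 5 concentrations, 96-well plates. GI50 = concentration required for 50% inhibition of growth. At the TGI there is no net growth.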
# Tests used:
# Test in all cases: DTP human tumour cell line panel, 48 h
# NCI-H23 lung = system: NCI-H23 lung
# SF-295 CNS = system: SF-295 CNS
# OVCAR-8 ovarian = system: OVCAR-8 ovarian
# DMS 114 small cell lung = system: DMS 114 small cell lung
# DMS 273 small cell lung = system: DMS 273 small cell lung
# M19-MEL melanoma = system: M19-MEL melanoma
# XF 498 CNS = system: XF 498 CNS
# LOX IMVI melanoma = system: LOX IMVI melanoma
# HT29 colon = system: HT29 colon
# SK-OV-3 ovarian = system: SK-OV-3 ovarian
SMILES,TGI (NCI-H23 lung) [µM],TGI (SF-295 CNS) [µM],TGI (OVCAR-8 ovarian) [µM],TGI (DMS 114 small cell lung) [µM],TGI (DMS 273 small cell lung) [µM],TGI (M19-MEL melanoma) [µM],TGI (XF 498 CNS) [µM],TGI (LOX IMVI melanoma) [µM],TGI (HT29 colon) [µM],TGI (SK-OV-3 ovarian) [µM],GI50 (NCI-H23 lung) [µM],GI50 (SF-295 CNS) [µM],GI50 (OVCAR-8 ovarian) [µM],GI50 (SK-OV-3 ovarian) [µM],GI50 (LOX IMVI melanoma) [µM],GI50 (HT29 colon) [µM],GI50 (M19-MEL melanoma) [µM],GI50 (DMS 273 small cell lung) [µM]
COC(=O)C(=O)C(C(=O)C(=O)Nc1cc(C)ccc1C)c1nc2ccc(C(=O)c3ccccc3)cc2[nH]c1=O (stereo not given),> 100,> 100,> 100,> 100,> 100,> 100,–,–,–,–,–,–,–,–,–,–,–,–
CCOC(=O)C(C(O)c1ccc([N+](=O)[O-])cc1)P(=O)(OCC)OCC (stereo not given),> 100,> 100,> 100,–,> 100,> 100,> 100,> 100,> 100,–,–,–,–,–,–,–,–,–
CCc1cccc(C)c1NC(=S)NC(=O)c1ccccc1C(=O)NC(=S)Nc1c(C)cccc1CC,> 100,> 100,> 100,70.8,> 100,> 100,–,> 100,> 100,> 100,–,–,–,–,–,–,–,–
[O-]c1c2c(nn1-c1ccc(Cl)cc1)c1ccccc1c[n+]2Cc1ccccc1,> 100,> 100,> 100,> 100,> 100,–,> 100,> 100,> 100,> 100,–,–,–,–,–,–,–,–
CCOCc1cc(=O)c2c(OC)cc3c(c2o1)CCC(C)(C)O3,> 100,> 100,> 100,–,–,> 100,> 100,> 100,> 100,> 100,–,–,–,–,–,–,–,–
C/C(=N\NC(=O)CC(=O)N(C(=O)c1ccc(Cl)cc1)c1ccc(C)cc1)c1ccccc1O,> 100,> 100,> 100,> 100,> 100,> 100,> 100,–,> 100,> 100,–,–,–,–,–,–,–,–
CCCCN(CCCC)CCCn1cnc2ncccc2c1=O,> 100,> 100,> 100,> 100,> 100,> 100,> 100,> 100,> 100,> 100,–,–,–,–,–,–,–,–
COC(=O)/C(=N\NC(N)=O)C(C(=O)C=C(C)C)C(=O)C(=O)Nc1ccc(Cl)c(Cl)c1 (stereo not given),> 100,> 100,> 100,> 100,> 100,> 100,> 100,> 100,> 100,> 100,–,–,–,–,–,–,–,–
COc1ccc(CCc2cc(OC)c(O)c(OC)c2)cc1,> 100,–,> 100,> 100,> 100,> 100,> 100,–,> 100,> 100,–,–,–,–,–,–,–,–
CC(C)C1N2CCCCC2[C@@H]2c3[nH]c4ccccc4c3CCN12 (stereo not given in full),> 100,> 100,> 100,> 100,> 100,> 100,> 100,–,> 100,> 100,–,–,–,–,–,–,–,–
c1ccc2c(NCCCCCCNc3cccc4ccccc34)cccc2c1,> 100,> 100,> 100,> 100,> 100,> 100,> 100,–,> 100,> 100,–,–,–,–,–,–,–,–
COc1cc(/C=C2/C(=O)N(C(=O)OCc3ccccc3)C(Cc3cc(OC)c(OC)c(C)c3OC)C(=O)N2Cc2ccccc2)c(OC)c(C)c1OC (stereo not given),> 100,> 100,> 100,> 100,> 100,> 100,–,> 100,> 100,> 100,–,–,–,–,–,–,–,–
CCCCCC[C@H](C)NC(=O)c1ccc(Nc2nc3ccccc3c3occc23)cc1,6.08,> 100,8,–,–,–,–,24.3,> 100,> 100,2.41,2.62,2.92,5.11,11.4,2.53,–,–
CCOP1(=O)C=C(C)C(=C(Cl)Cl)C(C)=C1 (stereo not given),38,39.8,> 100,–,–,36.3,35.7,> 100,84.1,> 100,–,–,–,–,22.8,6.6,12.9,–
Cc1ccc(NC(=O)OCC(COc2ccc(Cl)cc2Cl)OC(=O)Nc2ccc(C)cc2)cc1 (stereo not given),> 100,> 100,39.3,> 100,> 100,> 100,–,–,> 100,> 100,–,–,–,–,–,–,–,–
CN(C)c1ccc(N=C2C=CC(=O)c3ccccc32)cc1,8.04,3.66,18.2,–,–,–,–,4.13,12.2,> 100,2.41,1.68,3.71,17,1.78,3.62,–,–
CCN(CC)CCn1c2ccccc2c(=O)c2c(OC)ccc(OC)c21,> 100,> 100,> 100,–,> 100,> 100,> 100,> 100,> 100,–,–,–,–,–,–,–,–,–
C=CCc1c(O)c(C(=O)/C=C/c2ccccc2)c(OC)c2ccoc12,–,7.26,13.6,–,–,–,–,2.93,–,21.2,2.52,2.44,3.13,8.08,1.56,3.01,–,–
CCOC1CC2OC(=O)C1C=C2C(=O)OC (stereo not given),44.2,> 100,–,54.9,–,> 100,53.9,> 100,> 100,> 100,–,–,–,–,–,–,–,–
COc1cc(/C=C/C(=O)c2c(C)nc3ccccc3c2C)ccc1OCCCN1CCN(C(=O)c2ccco2)CC1,24.7,25.1,42.4,–,–,–,–,21.5,23.2,52,6.39,8.42,8.43,16.1,7.75,7.71,–,–
CN(C)c1ccc2nc(CC(O)(C(F)(F)F)C(F)(F)F)ccc2c1,> 10,> 10,> 10,–,–,–,–,> 10,> 10,> 10,–,–,–,–,–,–,–,–
CSc1ccc(C(=O)/C=C/c2ccccc2Cl)cc1,32.5,33.1,32.5,–,–,–,–,19.2,> 100,> 100,15.4,16.1,15.8,32.3,6.08,21.2,–,–

SMILES,TGI (NCI-H23 lung) [µM],TGI (SF-295 CNS) [µM],TGI (OVCAR-8 ovarian) [µM],TGI (DMS 114 small cell lung) [µM],TGI (DMS 273 small cell lung) [µM],TGI (M19-MEL melanoma) [µM],TGI (XF 498 CNS) [µM],TGI (LOX IMVI melanoma) [µM],TGI (HT29 colon) [µM],TGI (SK-OV-3 ovarian) [µM],GI50 (NCI-H23 lung) [µM],GI50 (SF-295 CNS) [µM],GI50 (OVCAR-8 ovarian) [µM],GI50 (SK-OV-3 ovarian) [µM],GI50 (LOX IMVI melanoma) [µM],GI50 (HT29 colon) [µM],GI50 (M19-MEL melanoma) [µM],GI50 (DMS 273 small cell lung) [µM]
COc1ccc2nc(NC(=O)C(=O)NNC(=O)c3ccncc3)sc2c1,> 100,> 100,> 100,> 100,–,> 100,> 100,> 100,> 100,> 100,–,–,–,–,–,–,–,–
C[Si](C)(C)C(Sc1ccccc1)(Sc1ccccc1)Sc1ccccc1,> 100,> 100,> 100,> 100,> 100,> 100,> 100,> 100,–,> 100,–,–,–,–,–,–,–,–
O=C1NC(c2cccc(OCc3ccccc3)c2)Nc2ccccc21 (stereo not given),> 100,4.12,27.5,–,–,–,–,17.5,0.239,5.87,–,–,–,–,–,–,–,–
COc1ccc2c(c1OC(C)=O)C1=CC(=O)CCC13CCNC3C2 (stereo not given),> 100,> 100,> 100,–,–,–,–,> 100,> 100,> 100,–,–,–,–,–,–,–,–
C1C[OH+]CC[OH+]CCNCC[OH+]CC[OH+]CCN1.Cl.[Cl-].[Pt+4],25,> 100,> 100,–,> 100,–,–,> 100,> 100,> 100,5.27,> 100,> 100,> 100,> 100,> 100,–,> 100
C/C(=N/N=C(N)N)c1ccc(NC(=O)Nc2ccc(/C(C)=N/N=C(N)N)cc2)cc1,48,28.4,> 78.8,–,–,–,–,> 70.1,> 100,> 82.3,13.9,12.4,21.8,36.3,21.5,27.3,–,–
CCn1ccc(NS(=O)(=O)c2ccc(N)cc2)nc1=O,> 100,> 100,> 100,–,–,–,–,> 100,> 100,> 100,> 100,> 100,> 100,> 100,> 100,> 100,–,–
CC1(C)N=C(N)N=C(N)N1c1cccc(Br)c1,> 100,> 38,> 100,–,–,–,–,> 100,> 100,> 100,0.564,0.642,0.228,1.69,0.146,0.255,–,–
CCOC(=O)C(=O)Nc1ccccc1C(C)C,> 100,> 100,> 100,> 100,> 100,> 100,> 100,–,> 100,> 100,–,–,–,–,–,–,–,–
COCc1c(-c2ccc(NC(=O)Nc3cc(C(F)(F)F)ccc3F)c(F)c2)c2c(N)ncnn2c1CN1CCOCC1,5.18,6.54,> 10,–,–,–,–,5.77,> 10,6.88,1.61,1.56,2.66,1.61,1.36,1.62,–,–
C[C@@H](Oc1cc(-n2cnc3ccc(OC[C@@H](O)CO)cc32)sc1C(N)=O)c1ccccc1Cl,> 25,> 25,> 25,–,–,–,–,> 25,> 25,> 25,0.14,0.318,0.109,0.123,0.0931,0.0798,–,–
O=C(O[C@H]1CCN2C[C@H]3C[C@H](CN4C(=O)CCC[C@H]34)[C@@H]2C1)c1ccc(O)cc1,> 100,> 100,> 100,–,–,–,–,> 100,> 100,> 100,–,–,–,–,–,–,–,–
Cc1ccc(S(=O)(=O)Nc2ccc(-c3cc(-c4cccc(F)c4)c(C#N)c(N)n3)cc2)cc1,7.96,14.5,7.83,–,–,–,–,3.66,12.3,23.3,2.48,3.33,2.43,8.92,1.82,3.4,–,–
Cc1cc(=O)oc2cc(OC/C=C3\CCC(=O)O3)ccc12,29.9,> 100,> 74.5,–,–,–,–,22.9,29.3,> 76,14.4,59,23.5,28.2,7.99,9.7,–,–
Nc1ncnc2c1ccn2[C@@H]1O[C@H]([C@H](O)c2ccc(Cl)c(F)c2)[C@@H](O)[C@H]1O,> 100,> 100,> 100,–,–,–,–,> 100,> 100,> 100,> 100,> 100,> 100,> 100,> 100,36,–,–
FC(F)(F)c1cc(Nc2ccc3cc(OCCCN4CCOCC4)ccc3n2)ccc1Cl,4.8,3.17,10,–,–,–,–,2.99,3.16,4.87,1.94,1.37,2.87,2.21,1.53,1.59,–,–
O=C(/C=C/OC(=O)c1cccc(Cl)c1)c1ccc(Cl)cc1,> 100,> 80.1,> 100,–,–,–,–,> 100,> 100,> 88.4,41.7,27.3,46.4,35.8,36.5,50,–,–
O=C(O)Cc1cccc2c(=O)c3cccc([N+](=O)[O-])c3oc12,> 100,> 100,> 100,–,–,–,–,> 100,> 100,> 100,–,–,–,–,–,–,–,–
Cc1ccccc1C1CC(c2ccccc2)=NO1 (stereo not given),> 100,> 100,> 100,> 100,> 100,–,–,–,> 100,> 100,–,–,–,–,–,–,–,–
C=C(CCCO)[C@@H]1CC[C@@](C)(O)[C@H]1C,> 100,> 100,> 100,> 100,> 100,> 100,> 100,–,> 100,> 100,–,–,–,–,–,–,–,–
C/C(=N/Nc1nc(C)cc(=O)[nH]1)C(=O)O,> 100,> 100,> 100,–,–,–,–,> 100,> 100,> 100,–,–,–,–,–,–,–,–

# Reference: PubChem BioAssay (NCI)
